Measured values taken from patent US12162820B2 (TAIWANJ PHARMACEUTICALS CO., LTD., priority 2019, dated 2024).

Columns and labels:
Type in all cases: biochemical
HDAC2 = target: T1, HDAC2 (Homo sapiens, UniProt Q92769); assay: HDAC Inhibition Screening Assay (FLUOR DE LYS Fluorimetric Drug Discovery Kit), HDAC2; conditions: for inhibition at 2 µM: 2 μM compound; for inhibition at 10 µM: 10 μM compound; for inhibition at 50 µM: 50 μM compound
T1 construct: purchased Enzo Life Sciences
Outline: (§1)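 Two-step fluorimetric kit: enzyme deacetylates acetylated-lysine substrate; developer then releases fluorophore. Test cpds 2, 10, 50 μM. Ex 360/485 nm, Em 460/530 nm. Activity = % of basal control minus baseline control.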

HDAC3 = target: T2, HDAC3 (Homo sapiens, UniProt O15379); assay: HDAC Inhibition Screening Assay (FLUOR DE LYS Fluorimetric Drug Discovery Kit), HDAC3; conditions: for inhibition at 2 µM: 2 μM compound; for inhibition at 10 µM: 10 μM compound; for inhibition at 50 µM: 50 μM compound
T2 construct: purchased Enzo Life Sciences
Outline: as §1

HDAC1 = target: T3, HDAC1 (Homo sapiens, UniProt Q13547); assay: HDAC Inhibition Screening Assay (FLUOR DE LYS Fluorimetric Drug Discovery Kit), HDAC1; conditions: for inhibition at 2 µM: 2 μM compound; for inhibition at 10 µM: 10 μM compound; for inhibition at 50 µM: 50 μM compound
T3 construct: purchased Enzo Life Sciences
Outline: as §1

ATX (autotaxin) = target: T4, ATX (autotaxin) (Homo sapiens, UniProt Q13822); assay: Autotaxin Inhibition Screening Assay (choline release from LPC, LPC-CR); conditions: for inhibition at 4 µM: 4 μM compound; for inhibition at 20 µM: 20 μM compound; for inhibition at 50 µM: 50 μM compound
T4 construct: purchased Cayman 10803
Outline: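 Released choline from 100 μM 14:0 LPC, detected via choline oxidase–HRP–homovanillic acid fluorescence (320/450 nm) kinetically over 90 min, reports activity of 20 ng ATX. Buffer: 50 mM Tris pH 8.0, 50 mM CaCl2, 0.01% Triton X-100; test compounds 4, 20, 50 μM; percent inhibition from blank-subtracted slopes relative to vehicle.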

T2 sequence (O15379 whole entry): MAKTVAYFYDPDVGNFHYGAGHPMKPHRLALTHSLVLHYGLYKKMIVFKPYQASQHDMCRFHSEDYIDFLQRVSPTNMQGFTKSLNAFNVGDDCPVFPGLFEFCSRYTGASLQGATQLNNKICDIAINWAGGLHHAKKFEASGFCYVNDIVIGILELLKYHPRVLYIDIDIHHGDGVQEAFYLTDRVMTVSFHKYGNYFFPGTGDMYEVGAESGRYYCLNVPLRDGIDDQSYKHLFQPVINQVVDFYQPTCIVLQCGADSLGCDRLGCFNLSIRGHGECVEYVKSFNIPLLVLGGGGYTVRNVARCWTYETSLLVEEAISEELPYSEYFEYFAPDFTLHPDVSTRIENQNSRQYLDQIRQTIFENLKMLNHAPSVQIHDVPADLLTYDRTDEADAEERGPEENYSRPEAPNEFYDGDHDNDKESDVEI
T2 sequence (O75376 395-489 partner limits assumed): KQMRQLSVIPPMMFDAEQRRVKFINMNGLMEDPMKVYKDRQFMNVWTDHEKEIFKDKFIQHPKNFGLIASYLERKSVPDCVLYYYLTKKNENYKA
T1 sequence (Q92769 whole entry): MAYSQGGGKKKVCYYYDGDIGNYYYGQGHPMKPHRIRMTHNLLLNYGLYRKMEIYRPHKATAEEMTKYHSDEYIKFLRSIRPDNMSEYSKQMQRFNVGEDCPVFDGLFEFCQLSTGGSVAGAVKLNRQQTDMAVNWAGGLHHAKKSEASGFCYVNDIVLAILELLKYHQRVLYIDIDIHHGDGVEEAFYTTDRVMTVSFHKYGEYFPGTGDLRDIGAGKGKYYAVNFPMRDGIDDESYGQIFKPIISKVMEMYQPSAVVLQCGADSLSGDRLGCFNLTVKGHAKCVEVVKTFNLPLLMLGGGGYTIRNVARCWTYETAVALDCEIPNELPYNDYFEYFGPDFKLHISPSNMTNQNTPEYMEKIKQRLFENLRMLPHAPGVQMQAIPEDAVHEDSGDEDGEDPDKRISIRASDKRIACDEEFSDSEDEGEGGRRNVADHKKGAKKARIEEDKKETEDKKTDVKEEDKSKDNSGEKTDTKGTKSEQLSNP
T3 sequence (Q13547 whole entry): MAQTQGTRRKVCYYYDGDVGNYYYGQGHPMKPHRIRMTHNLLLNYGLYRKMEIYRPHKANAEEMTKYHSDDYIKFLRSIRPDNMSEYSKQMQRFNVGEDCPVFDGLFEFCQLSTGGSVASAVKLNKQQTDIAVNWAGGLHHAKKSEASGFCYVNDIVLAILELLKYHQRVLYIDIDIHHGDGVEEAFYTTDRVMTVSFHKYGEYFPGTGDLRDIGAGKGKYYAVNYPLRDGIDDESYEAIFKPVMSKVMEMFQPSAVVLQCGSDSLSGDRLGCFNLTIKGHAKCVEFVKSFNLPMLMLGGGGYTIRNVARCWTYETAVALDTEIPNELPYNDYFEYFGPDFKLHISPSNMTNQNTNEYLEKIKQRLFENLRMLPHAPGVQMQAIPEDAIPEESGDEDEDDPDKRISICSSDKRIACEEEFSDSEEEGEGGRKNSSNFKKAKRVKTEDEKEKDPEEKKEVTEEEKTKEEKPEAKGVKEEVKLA

Structure (SMILES)	inhibition at 2 µM (HDAC2)	inhibition at 10 µM (HDAC2)	inhibition at 50 µM (HDAC2)	inhibition at 2 µM (HDAC3)	inhibition at 10 µM (HDAC3)	inhibition at 50 µM (HDAC3)	inhibition at 2 µM (HDAC1)	inhibition at 10 µM (HDAC1)	inhibition at 50 µM (HDAC1)	inhibition at 4 µM (ATX (autotaxin))	inhibition at 20 µM (ATX (autotaxin))	inhibition at 50 µM (ATX (autotaxin))
Cc1[nH]c2ccccc2c1CCNC1CCc2cc(/C=C/C(=O)NO)ccc21 (stereo not drawn) [Compound 60, (E)-N-hydroxy-3-(1-((2-(2-methyl-1H-indol-3-yl)ethyl)amino)-2,3-dihydro-1H-inden-5-yl)acryl amide]	> 80%	> 80%	> 80%	> 80%	> 80%	> 80%	> 80%	> 80%	> 80%	< 50%	< 50%	< 50%
O=C(/C=C/c1ccc2c(c1)CCCC2NCCc1c[nH]c2ccccc12)NO (stereo not drawn) [Compound 61, (E)-3-(5-((2-(1H-indol-3-yl)ethyl)amino)-5,6,7,8-tetrahydronaphthalen-2-yl)-N-hydroxy acrylamide]	> 80%	> 80%	> 80%	> 80%	> 80%	> 80%	> 80%	> 80%	> 80%	< 50%	< 50%	< 50%
Cc1[nH]c2ccccc2c1CCNC1CCCc2cc(/C=C/C(=O)Nc3ccc(F)cc3N)ccc21 (stereo not drawn) [Compound 62, (E)-N-(2-amino-4-fluorophenyl)-3-(5-((2-(2-methyl-1H-indol-3-yl)ethyl)amino)-5,6,7,8-tetrahydronaphthalen-2-yl)acrylamide]	> 80%	> 80%	> 80%	50 to 80%	> 80%	> 80%	50 to 80%	> 80%	> 80%	< 50%	< 50%	< 50%
Cc1[nH]c2ccccc2c1CCNC1CCCc2cc(/C=C/C(=O)NO)ccc21 (stereo not drawn) [Compound 63, (E)-N-hydroxy-3-(5-((2-(2-methyl-1H-indol-3-yl)ethyl)amino)-5,6,7,8-tetrahydronaphthalen-2-yl)acrylamide]	> 80%	> 80%	> 80%	> 80%	> 80%	> 80%	> 80%	> 80%	> 80%	< 50%	< 50%	< 50%
CN(C(=O)OCc1cc(C(F)(F)F)cc(C(F)(F)F)c1)C1CCc2cc(/C=C/C(=O)NO)ccc21 (stereo not drawn) [Compound 64, 3,5-bis(trifluoromethyl)benzyl (E)-(5-(3-(hydroxyamino)-3-oxoprop-1-en-1-yl)-2,3-dihydro-1H-inden-1-yl)(methyl)carbamate]	50 to 80%	> 80%	> 80%	< 50%	50 to 80%	> 80%	50 to 80%	> 80%	> 80%	50 to 80%	50 to 80%	50 to 80%
CN(C(=O)OCc1cc(C(F)(F)F)cc(C(F)(F)F)c1)C1CCc2ccc(/C=C/C(=O)NO)cc21 (stereo not drawn) [Compound 65, 3,5-bis(trifluoromethyl)benzyl (E)-(6-(3-(hydroxyamino)-3-oxoprop-1-en-1-yl)-2,3-dihydro-1H-inden-1-yl)(methyl)carbamate]	50 to 80%	> 80%	> 80%	< 50%	50 to 80%	> 80%	< 50%	50 to 80%	> 80%	> 80%	> 80%	> 80%
O=C(/C=C/c1ccc(COc2ccc3c(c2)CCCC3=O)cc1)NO [Compound 70, (E)-N-hydroxy-3-(4-(((5-oxo-5,6,7,8-tetrahydronaphthalen-2-yl)oxy)-methyl)phenyl)acrylamide]	> 80%	> 80%	> 80%	> 80%	> 80%	> 80%	50 to 80%	> 80%	> 80%	< 50%	50 to 80%	50 to 80%

Other lines, results leading:

inhibition at 2 µM (HDAC2)	inhibition at 10 µM (HDAC2)	inhibition at 50 µM (HDAC2)	inhibition at 2 µM (HDAC3)	inhibition at 10 µM (HDAC3)	inhibition at 50 µM (HDAC3)	inhibition at 2 µM (HDAC1)	inhibition at 10 µM (HDAC1)	inhibition at 50 µM (HDAC1)	inhibition at 4 µM (ATX (autotaxin))	inhibition at 20 µM (ATX (autotaxin))	inhibition at 50 µM (ATX (autotaxin))	Structure (SMILES)
< 50%	< 50%	< 50%	< 50%	< 50%	< 50%	< 50%	< 50%	< 50%	< 50%	< 50%	< 50%	Nc1ccccc1NC(=O)c1ccc(COc2ccc3c(c2)CC/C(=C\c2cc(C(F)(F)F)cc(C(F)(F)F)c2)C3=O)cc1 [Compound 66, (E)-N-(2-aminophenyl)-4-(((6-(3,5-bis(trifluoromethyl)-benzylidene)-5-oxo-5,6,7,8-tetrahydronaphthalen-2-yl)oxy)methyl)benzamide]
< 50%	< 50%	< 50%	< 50%	< 50%	< 50%	< 50%	< 50%	< 50%	< 50%	< 50%	< 50%	Nc1cc(F)ccc1NC(=O)c1ccc(COc2ccc3c(c2)CCC(Cc2cc(C(F)(F)F)cc(C(F)(F)F)c2)C3=O)cc1 (stereo not drawn) [Compound 67, N-(2-amino-4-fluorophenyl)-4-(((6-(3,5-bis(trifluoromethyl)benzyl)-5-oxo-5,6,7,8-tetrahydronaphthalen-2-yl)oxy)methyl)benzamide]
< 50%	< 50%	< 50%	< 50%	< 50%	< 50%	< 50%	< 50%	< 50%	< 50%	< 50%	< 50%	O=C(NO)c1ccc(COc2ccc3c(c2)CCC(Cc2cc(C(F)(F)F)cc(C(F)(F)F)c2)C3=O)cc1 (stereo not drawn) [Compound 68, 4-(((6-(3,5-bis(trifluoromethyl)benzyl)-5-oxo-5,6,7,8-tetrahydronaphthalen-2-yl)oxy)methyl)-N-hydroxybenzamide]
< 50%	< 50%	50 to 80%	< 50%	< 50%	< 50%	< 50%	< 50%	< 50%	< 50%	< 50%	< 50%	Nc1cc(F)ccc1NC(=O)/C=C/c1ccc(COc2ccc3c(c2)CCCC3=O)cc1 [Compound 69, (E)-N-(2-amino-4-fluorophenyl)-3-(4-(((5-oxo-5,6,7,8-tetra-hydronaphthalen-2-yl)oxy)methyl)phenyl)acrylamide]
